# Measurements reported in patent publication US5461061A, “Centrally acting 6,7,8,9-tetrahydro-3H-benz(E)indole heterocyclics” (priority 1993, dated 1995).
# Where a name gives a salt, the structure may show the parent alone. Read-outs that look alike come from different tables or passages of the source.
# Tests used:
# 5-HT1A sites = details: 3H-8-OH-DPAT, rat brain homogenates; cited from earlier work
# 5-HT1A = details: cited from earlier work
# [1] = tested on: central dopamine receptor (DOPA accumulation in the striatum); assay: In vivo rat brain tyrosine hydroxylation (DOPA accumulation, striatum) after reserpine pretreatment and NSD 1015; details: sc, reserpine-pretreated rats, bracket = highest dose tested, read-out: Dopa ED50 (stri)
# Description: (§1) In vivo determination of a rat brain tyrosine and tryptophan hydroxylation after reserpine pretreatment (biochemically monitored dopamine and 5-HT receptor activity).
# (§2) The compounds under evaluation were tested biochemically for central dopamine and 5-HT receptor (pre- and/or post-synaptic) stimulating activity. The concept of this biochemical screening method is that a dopamine or 5-HT-receptor agonist will stimulate the receptor and through regulatory feedback systems effect a decline in tyrosine or tryptophan hydroxylating activity, respectively, and a subsequent reduction in the synthesis rate for dopamine and 5-HT in the presynaptic neuron. Dopa and 5-HTP formation, as determined after in vivo inhibition of the aromatic L-amino acid decarboxylase with NSD 1015 (3-hydroxybenzylhydrazine hydrochloride) are taken as indirect measures of dopamine and 5-HT synthesis rates, respectively as described by Wikstrom et al., J. Med. Chem., 27, 1030, 1984.
# Rats (150-300 g) pretreated with reserpine (5 mg/kg, 18 hours before) were given the test compounds. Gross behavioral observations (changes in motility, hindleg abduction, etc.) were made. […]
# [2] = tested on: central 5-HT receptor (5-HTP accumulation in the limbic forebrain); assay: In vivo rat brain tryptophan hydroxylation (5-HTP accumulation, limbic forebrain) after reserpine pretreatment and NSD 1015; details: reserpine-pretreated rats, read-out: 5-HTP ED50 (limb)
# Description: as §1, §2
# (§3) Rats (150-300 g) pretreated with reserpine (5 mg/kg, 18 hours before) were given the test compounds. Gross behavioral observations (changes in motility, hindleg abduction, etc.) were made. Subsequent administration of NSD 1015, decapitation, brain dissection (corpora striata, the limbic forebrain and the remaining hemispheral portions (mainly cortex) or rat brain), homogenization, centrifugation, ion-exchange chromatography and spectrofluorimetric measurements (all as described in detail by Wikstrom, et al., M. Med. Chem., 21, 864-867, 1978 and reference cited therein), or by HPLC/EC, gave the actual […] and 5-HTP levels. Several doses (n=4-6) were tested for each compound and brain area. The dose of a compound giving 50% of the maximal reduction of the 5-HTP level in the rat brain part was then estimated.
# (§4) "+" indicates a motoric activation of the animals.
# [3] = tested on: motor activity / gross behavior (DA or 5-HT behavioral syndrome); assay: Motor activity and gross behavior in reserpine-pretreated rats; assay type: in vivo, rat
# Description: Antagonism of the reserpine-induced "neuroleptic syndrome" in the rat (gross behavior)
# Depletion of the monoamine stores with reserpine brings about a "neuroleptic syndrome" characterized by hypomotility, catalepsy, muscle rigidity, hunch-backed posture as well as a number of other central and peripheral signs of monoamine depletion. The whole or parts of this syndrome can be reversed by the administration of drugs that stimulate dopamine or 5-HT receptors directly or indirectly.
# Stimulation of the dopamine receptors, with apomorphine for example, gives rise to both locomotion and stereotyped behavior such as sniffing, gnawing and jumping. On the other hand, stimulation of the 5-HT receptors, with 5-hydroxytryptophan (5-HTP) combined with MAO-inhibitors for example, gives rise to a very different behavior.
# as §3, §4
# [4] = Blood pressure, heart rate and rectal temperature in awake spontaneously hypertensive rats (SHR); assay type: in vivo, rat (spontaneously hypertensive; details: for Δtemp max: rectal; for bioavailability: rat, in vivo
# Description: (§5) The male spontaneously hypertensive rats (SHR), or normotensive Sprague-Dawley rats # were implanted wit catheters in the arteria carotis and vena jugularis. The blood pressure (BP), heart rate (HR) and rectal temperature were recorded 24 hours later in the awake rat after per oral (p.o.) or intravenous *i.v.) administration of test drugs. Recording time was at least 90 minutes. Shown are the maximal effects during the 90 min recording period expressed as the deviation from baseline values (SHR:BP; 174±6 mmHG, HR; 366±10 beats/min, RT; 38.7±0.15 C and normotensives: BP; 111±3 mmHG, HR; 369±15 beats/min, RT; 38.7±0.23 C, means ±SEM, n=7) (means ±SEM, n=3-4). In case of a biphasic response (heart rate) during the 90 min, both maximal and minimal levels are shown period. The bioavailability calculations were based on the areas under the curves after po and iv administration.
# (§6) *denotes statistical significant difference (p<0.05, or less) compared to saline treated controls (ANOVA followed by Fischer's test).
# [5] = target: noradrenaline (NA) (α2) receptor; assay: In vitro binding, brain noradrenaline alpha2 receptor sites; design: species or system rat; details: non-pretreated rats
# [6] = Blood pressure, heart rate and rectal temperature in awake normotensive rats (#); assay type: in vivo, rat (normotensive Sprague-Dawley); details: 0.2 μmol/kg i.v.
# Description: as §5, §6
# central DA receptor = details: cited from earlier work
# dopamine receptors = details: cited from earlier work
# [7] = Stability remark on isolated product; assay type: physicochemical
# [8] = sc, bracket = highest dose tested
# [9] = 2.0 μmol/kg i.v., (±) 13a / (±) 13b
# [10] = 2.0 μmol/kg i.v., second printed (±) 13a line (biphasic, maximal level) / first printed (±) 13b line
# [11] = 10.0 μmol/kg i.v., first printed (±) 13a line, no # printed
# [12] = 10.0 μmol/kg i.v., second printed (±) 13a line
# [13] = 10.0 μmol/kg p.o., (±) 13a (biphasic, maximal level) / first printed (±) 13b line
# [14] = 10.0 μmol/kg p.o., (±) 13a / first (±) 13b
structure (smiles),measurement,setting,value
"CN(C)C1CCc2ccc3[nH]ccc3c2C1 (racemic) [6,7,8,9-tetrahydro-N,N-dimethyl-3H-benz(e)indole-8-amine]",5-HT1A binding affinity,5-HT1A sites,high affinity
same,5-HT1A agonist properties in vivo,5-HT1A,exhibits 5-HT1A agonist properties in vivo
"CCCN(CCC)C1CCc2ccc3[nH]ccc3c2C1 (racemic) [(±)-12b, 6,7,8,9-tetrahydro-N,N-dipropyl-3H-benz(e)indole-8-amine]",ED50,[1],0.28 µmol/kg
same,ED50,[2]; [8],0.1 µmol/kg
same,Mot. act. (+/-),[3]; sc,DA + 5-HT
"CN(C)C1CCc2ccc3[nH]cc(C=O)c3c2C1 (racemic) [(±)-13a, 1-Formyl-6,7,8,9-tetrahydro-N,N-dimethyl-3H-benz(e)indole-8-amine]",ED50,[2]; po,7 µmol/kg
same,ED50,[2]; [8],4 µmol/kg
same,Mot. act. (+/-),[3]; po,(+)5-HT
same,Mot. act. (+/-),[3]; sc,(+)5-HT
same,ΔBP max,"[4]; 2.0 μmol/kg i.v., (±) 13a",-12 ± 4 mm Hg
same,ΔHR max,"[4]; 2.0 μmol/kg i.v., (±) 13a",+35 ± 34 beats/min
same,ΔHR max (minimal level of biphasic response),"[4]; 2.0 μmol/kg i.v., (±) 13a",-33 ± 23 beats/min
same,duration ΔBP,[4]; [9],150 min
same,ΔBP max,[4]; [9],-60 ± 5 mm Hg
same,Δtemp max,[4]; [9],-0.2 ± 0.65 °C
same,Δtemp max,"[4]; 2.0 μmol/kg i.v., (±) 13a",-0.2 ± 0.40 °C
same,ΔHR max,[4]; [10],+55 ± 14 beats/min
same,ΔBP max,[4]; 2.0 μmol/kg p.o.,-23 ± 2 mm Hg
same,ΔHR max,[4]; 2.0 μmol/kg p.o.,+37 ± 44 beats/min
same,Δtemp max,[4]; 2.0 μmol/kg p.o.,+1.2 ± 0 °C
same,ΔHR max,"[4]; 10.0 μmol/kg i.v., (±) 13a, biphasic, maximal level",+87 ± 18 beats/min
same,ΔBP max,[4]; [11],-3 ± 1 mm Hg
same,ΔHR max,[4]; [11],+70 ± 47 beats/min
same,Δtemp max,[4]; [11],-1.0 ± 0.15 °C
same,duration ΔBP,[4]; [12],> 90 min
same,ΔBP max,[4]; [12],-57 ± 4 mm Hg
same,ΔHR max (minimal level of biphasic response),[4]; [12],-37 ± 3 beats/min
same,Δtemp max,[4]; [12],-0.7 ± 0.33 °C
same,ΔHR max (minimal level of biphasic response),[4]; 10.0 μmol/kg p.o.,-39 ± 18 beats/min
same,ΔHR max,[4]; [13],+24 ± 43 beats/min
same,duration ΔBP,[4]; [14],75 min
same,ΔBP max,[4]; [14],-43 ± 22 mm Hg
same,Δtemp max,[4]; [14],+0.7 ± 0.32 °C
same,bioavailability,"[4]; 10 umol/kg, 10.0 μmol/kg p.o., from areas under the curves after po and iv administration, read-out: Bioavail",48%
"CCCN(CCC)C1CCc2ccc3[nH]cc(C=O)c3c2C1 (racemic) [(±)-13b, 1-formyl-6,7,8,9-tetrahydro-N,N-dipropyl-3H-benz(e)indole-8-amine]",ED50,[2]; [8],0.06 µmol/kg
same,IC50,[5],3700 nM
same,Mot. act. (+/-),[3]; sc,+5-HT
same,duration ΔBP,[4]; [9],90 min
same,ΔBP max,[4]; [9],-35 ± 3 mm Hg
same,Δtemp max,[4]; [9],-1.5 ± 0.3 °C
same,ΔBP max,"[4]; 2.0 μmol/kg i.v., (±) 13b",+14 ± 1 mm Hg
same,ΔHR max,"[4]; 2.0 μmol/kg i.v., (±) 13b",-70 ± 15 beats/min
same,Δtemp max,"[4]; 2.0 μmol/kg i.v., (±) 13b",-1.6 ± 0.2 °C
same,ΔHR max,[4]; [10],+110 ± 10 beats/min
same,ΔHR max,[4]; [13],+78 ± 11 beats/min
same,duration ΔBP,[4]; [14],> 120 min
same,ΔBP max,[4]; [14],-55 ± 5 mm Hg
same,Δtemp max,[4]; [14],-1.0 ± 0.3 °C
same,duration ΔBP,"[4]; 10.0 μmol/kg p.o., (±) 13b",60 min
same,ΔBP max,"[4]; 10.0 μmol/kg p.o., (±) 13b",+28 ± 6 mm Hg
same,ΔHR max,"[4]; 10.0 μmol/kg p.o., (±) 13b",+70 ± 30 beats/min
same,Δtemp max,"[4]; 10.0 μmol/kg p.o., (±) 13b",-0.8 ± 0.4 °C
same,bioavailability,[4]; po,36%
"CCCN(CCC)C1COc2ccc3[nH]ccc3c2C1 (racemic) [(±)-21, 8-N,N-dipropylamino-8,9-dihydro-2H-pyrano-(3,2-e)-indol]",ED50,[1],1 µmol/kg
same,ED50,[2]; [8],3.1 µmol/kg
same,Mot. act. (+/-),[3]; sc,+DA
"CCCN(CCC)C1COc2ccc3[nH]cc(C=O)c3c2C1 (racemic) [(±)-22, 1-formyl-8-N,N-dipropylamino-8,9-dihydro-2H-pyrano-(3,2-e)indole]",ED50,[2]; [8],0.4 µmol/kg
same,Mot. act. (+/-),[3]; sc,+5-HT
"CCCN(CCC)C1CCc2cccc(O)c2C1 (racemic) [Compound 8-OH-DPAT, reference compound]",ED50,[2]; po,3 µmol/kg
same,ED50,[2]; [8],0.048 µmol/kg
same,Mot. act. (+/-),[3]; sc,++5-HT
same,ΔBP max,[6],-12 ± 6 mm Hg
same,ΔHR max,[6],-83 ± 16 beats/min
same,Δtemp max,[6]; rectal,-1.5 ± 0.27 °C
"CCCN(CCC)C1CCc2cc3cc[nH]c3cc2C1 (stereo not drawn) [5,6,7,8-N,N-di-n-propyl-1H-benz(f)indole-7-amine]",dopaminergic activity,central DA receptor,dopaminergically inactive
"CN(C)[C@@H]1CCc2ccc3[nH]cc(C=O)c3c2C1 [(+)-13a, (+)-1-formyl-6,7,8,9-tetrahydro-N,N-dimethyl-3H-benz(e) indole-8-amine]",ED50,[2]; [8],1 µmol/kg
same,IC50,[5],140 nM
same,Mot. act. (+/-),[3]; sc,+5-HT
O=C1CC2(CCCC2)CC(=O)N1CCCCN1CCN(c2ncccn2)CC1 [Buspirone hydrochloride],dopamine receptor antagonism,dopamine receptors,antagonizes dopamine receptors at the same dose it stimulates 5-HT1A receptors
"CN(C)C1CCc2ccc3[nH]cc(Br)c3c2C1 (stereo not drawn) [Example 12, 1-Bromo-6,7,8,9-tetrahydro-N,N-dimethyl-8-amino-3H-benz[e]indole]",stability of the product,[7],unstable
"CN(C)[C@@H]1CCc2ccc3[nH]ccc3c2C1 [R-6,7,8,9-tetrahydro-N,N-dimethyl-3H-benz(e)indole-8-amine]",5-HT1A binding affinity,5-HT1A sites,high affinity
CC1(C)CC(=O)N(CCCCN2CCN(c3ncccn3)CC2)C(=O)C1 [gepirone],dopamine receptor antagonism,dopamine receptors,has dopamine antagonist properties
